According to patent publication US9491962B2, “Use of chicoric acid and derivatives for regulating skin pigmentation” (Nestec S.A., priority 2010, dated 2016):

How the values were obtained:
B16 murine melanocytes = assay: Production of melanin by B16 murine melanocyte cell line; type: cell-based; settings: for melanin production (result in words): B16 melanocytes, 72 hours, Kojic acid at 400 μg/mL
Experimental: In order to evaluate the potential beneficial effect of ingredients towards skin de- or pro-pigmentation we used 2D culture of murine melanocytes (B16) and we performed 2 tests: 1-assessment of melanin production and 2-assessment of tyrosinase production. B16 cells were cultured in DMEM 1 g/L glucose without phenol red supplemented with 10% foetal calf serum, in a humidified chamber at 37° C. and containing 5% CO2. Cells were incubated with the selected ingredients or the test references (Kojic acid at 400 μg/mL) for 72 hours, in the presence or absence of NDP-MSH an analog of MSH. The total quantity of melanin (extracellular and intracellular) was evaluated by measurement of the optical density at 405 nm of each sample against melanin standards in presence or in absence of NDP-MSH.

HDF = assay: Highest non cytotoxic concentration on HDF; type: cell-based; settings: mM
Source text: (§1) We have tested two chicory extracts MS-55 (concentré MS-55 LEROUX) and MS-70 (pâte MS-70 LEROUX) and Chicoric acid.

HPEK = assay: Highest non cytotoxic concentration on HPEK; type: cell-based, human; settings: mM
Experimental: as §1
The potential beneficial effect of the Extracts of Example 1 towards skin barrier function and skin hydration was evaluated by using 2D culture of human primary epidermal keratinocytes and we assessed the synthesis of filaggrin

filaggrin = assay: Synthesis of filaggrin by human epidermal keratinocytes (immunolabeling); type: cell-based; settings: human primary epidermal keratinocytes, 144 hours
Experimental: The potential beneficial effect of the Extracts of Example 1 towards skin barrier function and skin hydration was evaluated by using 2D culture of human primary epidermal keratinocytes and we assessed the synthesis of filaggrin Human epidermal keratinocytes were cultured in control keratinocytes-SFM medium, in a humidified chamber at 37° C. and containing 5% CO2. Cells were incubated with the selected ingredients or the test references (CaCl2 at 1.5 mM) for 144 hours. The production of filaggrin by was evaluated by immunolabeling.

Structure (SMILES): O=C(/C=C/c1ccc(O)c(O)c1)O[C@@H](C(=O)O)[C@@H](OC(=O)/C=C/c1ccc(O)c(O)c1)C(=O)O [Chicoric acid]
- decrease of melanin production (B16 murine melanocytes; B16 melanocytes treated for 72 hours, percentage relative to the control): 90%
- melanin production (result in words) (B16 murine melanocytes): decrease in vitro the synthesis of melanin
- Highest non cytotoxic conc. on HDF (HDF): 0.2 mM
- Highest non cytotoxic conc. on HPEK (HPEK): 0.2 mM
- filaggrin synthesis (result in words) (filaggrin): increase of filaggrin

Structure (SMILES): O=c1cc(CO)occ1O [Kojic acid, reference compound]
- melanin production (result in words) (B16 murine melanocytes): decrease in melanin production
